Assays:
human Chk1 kinase = target: T1, human Chk1 kinase (Homo sapiens, UniProt O14757); experiment: biochemical
T1 sequence (O14757 1-476): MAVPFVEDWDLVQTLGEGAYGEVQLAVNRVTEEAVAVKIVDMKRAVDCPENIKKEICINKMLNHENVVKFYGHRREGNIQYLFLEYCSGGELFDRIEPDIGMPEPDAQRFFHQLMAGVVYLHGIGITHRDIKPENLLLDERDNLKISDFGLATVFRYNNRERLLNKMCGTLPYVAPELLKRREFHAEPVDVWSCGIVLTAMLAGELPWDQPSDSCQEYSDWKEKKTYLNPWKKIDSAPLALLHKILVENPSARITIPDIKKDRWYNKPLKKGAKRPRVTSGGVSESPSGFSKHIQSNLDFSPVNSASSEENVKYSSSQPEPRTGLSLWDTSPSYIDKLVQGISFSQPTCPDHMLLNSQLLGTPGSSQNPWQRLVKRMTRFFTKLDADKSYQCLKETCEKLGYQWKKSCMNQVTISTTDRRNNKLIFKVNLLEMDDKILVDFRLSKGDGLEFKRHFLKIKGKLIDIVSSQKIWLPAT

human Chk2 kinase = human Chk2 kinase (Homo sapiens, UniProt O96017); experiment: biochemical
Sequence of human Chk2 kinase (O96017 whole entry): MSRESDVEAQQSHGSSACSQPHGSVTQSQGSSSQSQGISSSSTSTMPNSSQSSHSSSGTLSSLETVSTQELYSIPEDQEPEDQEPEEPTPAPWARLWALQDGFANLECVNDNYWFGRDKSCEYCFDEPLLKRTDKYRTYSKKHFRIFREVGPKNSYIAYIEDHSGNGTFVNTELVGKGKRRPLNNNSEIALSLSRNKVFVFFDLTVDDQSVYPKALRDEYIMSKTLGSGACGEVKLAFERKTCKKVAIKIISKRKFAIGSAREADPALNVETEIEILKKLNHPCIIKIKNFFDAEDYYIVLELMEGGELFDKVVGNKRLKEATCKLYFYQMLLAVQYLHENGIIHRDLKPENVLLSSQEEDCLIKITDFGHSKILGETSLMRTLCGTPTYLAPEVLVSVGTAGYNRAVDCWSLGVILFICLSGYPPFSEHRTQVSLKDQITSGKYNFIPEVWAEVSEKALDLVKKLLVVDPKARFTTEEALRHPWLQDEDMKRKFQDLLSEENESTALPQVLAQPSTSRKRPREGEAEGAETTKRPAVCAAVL

IC50 (human Chk1 kinase) [µM] | IC50 (human Chk2 kinase) [µM] | Compound
0.0316 to 0.1 | > 100 | N#Cc1cnc(Nc2cn(-c3cccc(N4CCN5CCC[C@H]5C4)c3)cn2)cn1 [Example 35, (S)-5-((1-(3-(Hexahydropyrrolo[1,2-a]pyrazin-2(1H)-yl)phenyl)-1H-imidazol-4-yl)amino)pyrazine-2-carbonitrile]
0.0316 to 0.1 | 10 to 100 | COc1cc(N(C)CC2CCN(C)CC2)ccc1-n1cnc(Nc2cnc(C#N)cn2)c1 [Example 36, 5-((1-(2-Methoxy-4-(methyl((1-methylpiperidin-4-yl)methyl)amino)phenyl)-1H-imidazol-4-yl)amino)pyrazine-2-carbonitrile]
< 0.01 | 1 to 10 | CN(C)C1CCN(c2ccc(-n3cnc(Nc4cnc(C#N)cn4)c3)cc2)CC1 [Example 37, 5-((1-(4-(4-(Dimethylamino)piperidin-1-yl)phenyl)-1H-imidazol-4-yl)amino)pyrazine-2-carbonitrile]
0.01 to 0.0316 | 10 to 100 | CN(C)[C@@H]1CCN(c2cccc(-n3cnc(Nc4cnc(C#N)cn4)c3)c2)C1 [Example 38, (R)-5-((1-(3-(3-(Dimethylamino)pyrrolidin-1-yl)phenyl)-1H-imidazol-4-yl)amino)pyrazine-2-carbonitrile]
0.01 to 0.0316 | 10 to 100 | CN1CCC2(CC1)CCN(c1cccc(-n3cnc(Nc4cnc(C#N)cn4)c3)c1)C2 [Example 39, 5-((1-(3-(8-Methyl-2,8-diazaspiro[4.5]decan-2-yl)phenyl)-1H-imidazol-4-yl)amino)pyrazine-2-carbonitrile]
0.01 to 0.0316 | 10 to 100 | CCN1CCC(Nc2ccc(-n3cnc(Nc4cnc(C#N)cn4)c3)c(OC)c2)CC1 [Example 41, 5-((1-(4-((1-Ethylpiperidin-4-yl)amino)-2-methoxyphenyl)-1H-imidazol-4-yl)amino)pyrazine-2-carbonitrile]
< 0.01 | 10 to 100 | CN1C[C@@H]2CC[C@H]1CN2c1ccc(-n2cnc(Nc3cnc(C#N)cn3)c2)cc1 [Example 42, 5-((1-(4-((1S,4S)-5-Methyl-2,5-diazabicyclo[2.2.2]octan-2-yl)phenyl)-1H-imidazol-4-yl)amino)pyrazine-2-carbonitrile]
0.0316 to 0.1 | 10 to 100 | CN1CCC(N(C)c2cccc(-n3cnc(Nc4cnc(C#N)cn4)c3)c2)CC1 [Example 43, 5-((1-(3-(Methyl(1-methylpiperidin-4-yl)amino)phenyl)-1H-imidazol-4-yl)amino)pyrazine-2-carbonitrile]
0.01 to 0.0316 | 10 to 100 | COc1cc(N2C[C@H]3C[C@@H]2CN3C)ccc1-n1cnc(Nc2cnc(C#N)cn2)c1 [Example 44, 5-((1-(2-Methoxy-4-((1R,4R)-5-methyl-2,5-diazabicyclo[2.2.1]heptan-2-yl)phenyl)-1H-imidazol-4-yl)amino)pyrazine-2-carbonitrile]
0.01 to 0.0316 | 10 to 100 | CC(C)(C)N1CC(Oc2ccc(-n3cnc(Nc4cnc(C#N)cn4)c3)cc2)C1 [Example 45, 5-((1-(4-((1-(tert-Butyl)azetidin-3-yl)oxy)phenyl)-1H-imidazol-4-yl)amino)pyrazine-2-carbonitrile]
0.01 to 0.0316 | 10 to 100 | COc1cc(N2CC3(CN(C)C3)C2)ccc1-n1cnc(Nc2cnc(C#N)cn2)c1 [Example 46, 5-((1-(2-Methoxy-4-(6-methyl-2,6-diazaspiro[3.3]heptan-2-yl)phenyl)-1H-imidazol-4-yl)amino)pyrazine-2-carbonitrile]
0.0316 to 0.1 | > 100 | CCCN1CC(Oc2cccc(-n3cnc(Nc4cnc(C#N)cn4)c3)c2)C1 [Example 48, 5-((1-(3-((1-Propylazetidin-3-yl)oxy)phenyl)-1H-imidazol-4-yl)amino)pyrazine-2-carbonitrile]
< 0.01 | 1 to 10 | COc1cc(N2CC[C@@H](N3CCCC3)C2)ccc1-n1cnc(Nc2cnc(C#N)cn2)c1 [Example 51, (R)-5-((1-(4-([1,3′-Bipyrrolidin]-1′-yl)-2-methoxyphenyl)-1H-imidazol-4-yl)amino)pyrazine-2-carbonitrile]
0.01 to 0.0316 | 10 to 100 | COc1cc(OC2CN(C(C)(C)C)C2)ccc1-n1cnc(Nc2cnc(C#N)cn2)c1 [Example 53, 5-((1-(4-((1-(tert-Butyl)azetidin-3-yl)oxy)-2-methoxyphenyl)-1H-imidazol-4-yl)amino)pyrazine-2-carbonitrile]
0.1 to 0.316 | > 100 | Cc1cc(CN2CC[C@@H](F)C2)cc(C(F)(F)F)c1-n1cnc(Nc2cnc(C#N)cn2)c1 [Example 54, (R)-5-((1-(4-((3-Fluoropyrrolidin-1-yl)methyl)-2-methyl-6-(trifluoromethyl)phenyl)-1H-imidazol-4-yl)amino)pyrazine-2-carbonitrile]
0.01 to 0.0316 | 10 to 100 | COc1cc(N2C[C@H]3CCN(C)[C@H]3C2)ccc1-n1cnc(Nc2cnc(C#N)cn2)c1 [Example 55, 5-((1-(2-Methoxy-4-((3aR,6aR)-1-methylhexahydropyrrolo[3,4-b]pyrrol-5(1H)-yl)phenyl)-1H-imidazol-4-yl)amino)pyrazine-2-carbonitrile]
0.1 to 0.316 | 10 to 100 | CN1C[C@H](F)[C@H](Oc2cccc(-n3cnc(Nc4cnc(C#N)cn4)c3)c2)C1 [Example 56, 5-((1-(3-(((3R,4S)-4-fluoro-1-methylpyrrolidin-3-yl)oxy)phenyl)-1H-imidazol-4-yl)amino)pyrazine-2-carbonitrile]
0.316 to 1 | > 100 | Cc1cc(CN2CC[C@@H](F)C2)cc(C)c1-n1cnc(Nc2cnc(C#N)cn2)c1 [Example 57, (R)-5-((1-(4-((3-Fluoropyrrolidin-1-yl)methyl)-2,6-dimethylphenyl)-1H-imidazol-4-yl)amino)pyrazine-2-carbonitrile]
0.0316 to 0.1 | 10 to 100 | Cc1ccc(-n2cnc(Nc3cnc(C#N)cn3)c2)cc1N1CC[C@@H](N(C)C)C1 [Example 58, (R)-5-((1-(3-(3-(Dimethylamino)pyrrolidin-1-yl)-4-methylphenyl)-1H-imidazol-4-yl)amino)pyrazine-2-carbonitrile]
0.0316 to 0.1 | 10 to 100 | CN1CCC2(CC1)CCN(c1ccc(-n3cnc(Nc4cnc(C#N)cn4)c3)cc1)C2 [Example 60, 5-((1-(4-(8-Methyl-2,8-diazaspiro[4.5]decan-2-yl)phenyl)-1H-imidazol-4-yl)amino)pyrazine-2-carbonitrile]
0.01 to 0.0316 | 1 to 10 | CN(C)[C@H]1CN(c2ccc(-n3cnc(Nc4cnc(C#N)cn4)c3)cc2)C[C@H]1F [Example 62, 5-((1-(4-((3S,4R)-3-(Dimethylamino)-4-fluoropyrrolidin-1-yl)phenyl)-1H-imidazol-4-yl)amino)pyrazine-2-carbonitrile]
< 0.01 | 1 to 10 | CN(C)[C@H]1CN(c2ccc(-n3cnc(Nc4cnc(C#N)cn4)c3)cc2)C[C@@H]1F [Example 63, 5-((1-(4-((3S,4S)-3-(Dimethylamino)-4-fluoropyrrolidin-1-yl)phenyl)-1H-imidazol-4-yl)amino)pyrazine-2-carbonitrile]
0.0316 to 0.1 | 10 to 100 | CN(C)C[C@@H]1CCCN1c1ccc(-n2cnc(Nc3cnc(C#N)cn3)c2)cc1 [Example 66, (S)-5-((1-(4-(2-((Dimethylamino)methyl)pyrrolidin-1-yl)phenyl)-1H-imidazol-4-yl)amino)pyrazine-2-carbonitrile]
0.0316 to 0.1 | 1 to 10 | CN(C)[C@@H]1CCN(c2ccc(-n3cnc(Nc4cnc(C#N)cn4)c3)cc2C(F)(F)F)C1 [Example 70, (R)-5-((1-(4-(3-(Dimethylamino)pyrrolidin-1-yl)-3-(trifluoromethyl)phenyl)-1H-imidazol-4-yl)amino)pyrazine-2-carbonitrile]
0.01 to 0.0316 | 10 to 100 | N#Cc1cnc(Nc2cn(-c3ccc(N4CC[C@@H](N5CCOCC5)C4)cc3)cn2)cn1 [Example 72, (R)-5-((1-(4-(3-Morpholinopyrrolidin-1-yl)phenyl)-1H-imidazol-4-yl)amino)pyrazine-2-carbonitrile]
0.01 to 0.0316 | 10 to 100 | CN(C)[C@@H]1CCN(c2ccc(-n3cnc(Nc4cnc(C#N)cn4)c3)nc2C(F)(F)F)C1 [Example 77, (R)-5-((1-(5-(3-(Dimethylamino)pyrrolidin-1-yl)-6-(trifluoromethyl)pyridin-2-yl)-1H-imidazol-4-yl)amino)pyrazine-2-carbonitrile]
0.0316 to 0.1 | 10 to 100 | CN1C[C@@H]2CN(c3ccc(-n4cnc(Nc5cnc(C#N)cn5)c4)c(F)c3)[C@@H]2C1 [Example 80, 5-((1-(2-Fluoro-4-((1R,5S)-3-methyl-3,6-diazabicyclo[3.2.0]heptan-6-yl)phenyl)-1H-imidazol-4-yl)amino)pyrazine-2-carbonitrile]
0.0316 to 0.1 | 1 to 10 | CN1C[C@H]2CN(c3ccc(-n4cnc(Nc5cnc(C#N)cn5)c4)c(F)c3)[C@H]2C1 [Example 81, 5-((1-(2-Fluoro-4-((1S,5R)-3-methyl-3,6-diazabicyclo[3.2.0]heptan-6-yl)phenyl)-1H-imidazol-4-yl)amino)pyrazine-2-carbonitrile]
0.0316 to 0.1 | 1 to 10 | CN(C)[C@@H]1CCN(c2cnc(-n3cnc(Nc4cnc(C#N)cn4)c3)nc2)C1 [Example 82, (R)-5-((1-(5-(3-(Dimethylamino)pyrrolidin-1-yl)pyrimidin-2-yl)-1H-imidazol-4-yl)amino)pyrazine-2-carbonitrile]

Reference: patent US20260132140A1, “IMIDAZOLYL-AMINO-PYRAZINE-CARBONITRILS AS CHK-1 INHIBITORS” (BenevolentAI Bio Limited, priority 2022, published 2026)
